Results as given in US20240208932A1, “ARYLAMINO DERIVATIVE ESTROGEN RECEPTOR MODULATOR AND USE THEREOF” (XIZANG HAISCO PHARMACEUTICAL CO., LTD., priority 2021, published 2024).

Key:
[1] = Pharmacokinetic test in rats; format: in vivo; settings: male, SD, rat, plasma; for Vd: read-out: Vdss
Description: 3. Pharmacokinetic Test in Rats
3.1 Experimental animals: male SD rats, about 220 g, 6-8 weeks old, 6 rats/compound, purchased from Chengdu Ddossy Experimental Animals Co., Ltd.
3.2 Experimental design: on the day of the test, 24 SD rats were randomly grouped according to their body weight; the animals were fasted with water available for 12 to 14 h one day before the administration, and were fed 4 h after the administration;
(DMA: dimethylacetamide; Solutol: Polyethylene glycol-15-hydroxystearate; Saline: Normal saline; MC: methylcellulose)
(§1) Before and after the administration, 0.15 ml of blood was taken from the orbit of the animals under isoflurane anesthesia and placed in an EDTAK2 centrifuge tube. The blood was centrifuged at 5000 rpm and 4° C. for 10 min to collect plasma. The blood collection time points for the intravenous administration group and intragastric administration group were: 0, 5 min, 15 min, 30 min, 1 h, 2 h, 4 h, 6 h, 8 h, and 24 h. Before analysis and detection, all samples were stored at −80° C., and a quantitative analysis of samples was performed using LC-MS/MS.

[2] = target: hERG potassium ion channel (Homo sapiens (Human), UniProt Q12809); test: Test for hERG potassium ion channel (manual patch-clamp, CHO cells); format: cell-based; settings: for IC50: CHO cells stably expressing hERG, whole cell patch-clamp, read-out: IC50 on hERG potassium channel current; for inhibition at 40 µM: human, CHO cells stably expressing hERG potassium channel, hERG potassium channel current, read-out: Inhibition rate at the highest concentration tested
Description: 5. Test for hERG Potassium Ion Channel
Test platform: electrophysiological manual patch-clamp system
Cell line: Chinese hamster ovary (CHO) cell lines stably expressing hERG potassium ion channel Test method: In CHO (Chinese Hamster Ovary) cells stably expressing hERG potassium channel, whole cell patch-clamp technique was used to record hERG potassium channel current at room temperature. The glass microelectrode was made of a glass electrode blank (BF150-86-10, Sutter) by a puller. The tip resistance after filling the liquid in the electrode was about 2-5 MΩ. The glass microelectrode can be connected to the patch-clamp amplifier by inserting the glass microelectrode into an amplifier probe. The clamping voltage and data recording were controlled and recorded by the pClamp 10 software through a computer. The sampling frequency was 10 kHz, and the filtering frequency was 2 kHz. After the whole cell records were obtained, the cells were clamped at −80 mV, and the step voltage that induced the hERG potassium current (I hERG) was depolarized from −80 mV to +20 mV for 2 s, then repolarized to −50 mV, and returned to −80 mV after 1 s. This voltage stimulation was given every 10 s, and the administration process was started after the hERG potassium current was confirmed to be stable (at least 1 minute). The compound was administered for at least 1 minute at each test concentration, and at least 2 cells ([…]) were tested at each concentration.
Data processing: Data analysis processing was carried out by using pClamp 10, GraphPad Prism 5 and Excel software. The inhibition degree of hERG potassium current (peak value of hERG tail current induced at −50 mV) at different compound concentrations was calculated by the following formula:
Inhibition %=[1−(I/Io)]×100% wherein, Inhibition % represents the percentage of inhibition of hERG potassium current by the compound, and I and Io represent the amplitude of hERG potassium current after and before dosing, respectively.
IC50 for the compound was calculated using GraphPad Prism 5 software by fitting according to the following equation:
Y=Bottom+(Top−Bottom)/(1+10^((LogIC50−X)*HillSlope)) wherein, X represents the Log value of the tested concentration of the test sample, Y represents the inhibition percentage at the corresponding concentration, and Bottom and Top represent the minimum and maximum inhibition percentage, respectively.

[3] = Pharmacokinetic test in mice; format: in vivo; settings: male, ICR, mouse, plasma; for Vd: read-out: Vdss
Description: 4. Pharmacokinetic Test in Mice
4.1 Experimental animals: male ICR mice, 20-25 g, 18 mice/compound. purchased from Chengdu Ddossy Experimental Animals Co., Ltd.
4.2 Experimental design: on the day of the test, 72 ICR mice were randomly grouped according to their body weights. the animals were fasted with water available for 12 to 14 h one day before the administration, and were fed 4 h after the administration;
as §1, with “administration, 0.06 mL” for “administration, 0.15 ml”, “intravenous” for “intravenous administration”, “administration […]” for “administration”, “were: 0 min,” for “were: 0,”

CYP2D6 = CYP2D6 (Homo sapiens (Human), UniProt P10635); test: CYP450 enzyme inhibition test, human liver microsomes; format: in vitro ADME; settings: incubation concentration 0-50/100 μM
Description: (§2) 6. CYP450 Enzyme Inhibition Test
(§3) The purpose of this study was to evaluate the effect of the test compound on the activity of five isoenzymes (CYP1A2, CYP2C9, CYP2C19, CYP2D6 and CYP3A4) of human liver microsomal cytochrome P450 (CYP) by using an in vitro testing system. The specific probe substrates of CYP450 isoenzymes were incubated with human liver microsomes and test compounds of different concentrations, and reduced nicotinamide adenine dinucleotide phosphate (NADPH) was added to initiate the reaction. After the completion of the reaction, the sample was treated and liquid chromatography-tandem mass spectrometry (LC-MS/MS) was used to quantitatively detect metabolites produced by specific substrates, changes in CYP enzyme activity were determined, and IC50 value was calculated to evaluate the inhibitory potential of the test compound on each CYP enzyme subtype.

CYP3A4 = CYP3A4 (Homo sapiens (Human), UniProt P08684); test: as above; format: in vitro ADME; settings: incubation concentration 0-50/100 μM, read-out: IC50 CYP3A-M
Description: as §2, §3

CYP1A2 = CYP1A2 (Homo sapiens (Human), UniProt P05177); test: as above; format: in vitro ADME; settings: incubation concentration 0-50/100 μM
Description: as §2, §3

CYP2C9 = CYP2C9 (Homo sapiens (Human), UniProt P11712); test: as above; format: in vitro ADME; settings: incubation concentration 0-50/100 μM
Description: as §2, §3

CYP2D6, sequence (P10635 whole entry): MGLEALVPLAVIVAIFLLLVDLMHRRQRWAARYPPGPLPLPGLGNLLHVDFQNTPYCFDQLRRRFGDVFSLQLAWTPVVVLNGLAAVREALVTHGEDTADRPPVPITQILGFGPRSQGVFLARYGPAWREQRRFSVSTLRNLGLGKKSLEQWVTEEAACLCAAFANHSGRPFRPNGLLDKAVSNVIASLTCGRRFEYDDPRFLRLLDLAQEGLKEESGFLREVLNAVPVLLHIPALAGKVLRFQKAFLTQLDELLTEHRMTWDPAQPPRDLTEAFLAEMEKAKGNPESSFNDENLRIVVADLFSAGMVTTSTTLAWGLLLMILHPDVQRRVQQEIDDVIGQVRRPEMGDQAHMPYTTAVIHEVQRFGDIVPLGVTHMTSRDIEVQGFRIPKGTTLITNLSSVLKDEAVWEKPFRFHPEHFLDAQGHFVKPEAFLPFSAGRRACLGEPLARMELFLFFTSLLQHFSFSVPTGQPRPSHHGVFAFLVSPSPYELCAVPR
hERG potassium ion channel, sequence (Q12809 whole entry): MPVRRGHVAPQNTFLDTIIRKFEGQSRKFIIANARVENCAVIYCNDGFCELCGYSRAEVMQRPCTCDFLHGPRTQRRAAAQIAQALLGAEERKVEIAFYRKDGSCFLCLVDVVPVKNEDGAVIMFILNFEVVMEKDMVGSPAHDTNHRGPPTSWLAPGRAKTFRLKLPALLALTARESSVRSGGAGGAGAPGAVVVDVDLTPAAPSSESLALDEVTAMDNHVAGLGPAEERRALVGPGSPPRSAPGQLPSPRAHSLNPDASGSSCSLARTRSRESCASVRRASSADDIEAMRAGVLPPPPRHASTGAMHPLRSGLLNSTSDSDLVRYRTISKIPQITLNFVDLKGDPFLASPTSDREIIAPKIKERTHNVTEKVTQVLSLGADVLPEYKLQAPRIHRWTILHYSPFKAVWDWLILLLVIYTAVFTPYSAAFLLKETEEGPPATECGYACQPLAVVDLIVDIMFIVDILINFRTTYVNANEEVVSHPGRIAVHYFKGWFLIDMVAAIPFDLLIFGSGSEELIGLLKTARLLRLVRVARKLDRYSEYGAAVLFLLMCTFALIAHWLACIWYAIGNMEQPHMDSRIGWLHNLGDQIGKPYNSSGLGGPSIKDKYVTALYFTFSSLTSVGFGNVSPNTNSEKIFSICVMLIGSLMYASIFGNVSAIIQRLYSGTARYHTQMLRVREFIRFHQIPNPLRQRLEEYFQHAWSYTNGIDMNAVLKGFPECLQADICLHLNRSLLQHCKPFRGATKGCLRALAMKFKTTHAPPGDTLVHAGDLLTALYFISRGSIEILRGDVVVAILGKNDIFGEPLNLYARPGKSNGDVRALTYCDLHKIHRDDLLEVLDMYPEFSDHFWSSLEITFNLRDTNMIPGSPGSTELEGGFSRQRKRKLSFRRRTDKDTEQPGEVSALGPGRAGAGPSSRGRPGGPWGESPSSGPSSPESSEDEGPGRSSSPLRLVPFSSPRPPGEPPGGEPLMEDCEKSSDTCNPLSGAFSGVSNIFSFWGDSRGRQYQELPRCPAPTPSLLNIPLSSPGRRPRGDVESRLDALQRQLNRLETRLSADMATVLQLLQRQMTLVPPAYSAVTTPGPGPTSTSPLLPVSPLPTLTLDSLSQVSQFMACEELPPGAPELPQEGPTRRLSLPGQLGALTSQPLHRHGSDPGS
CYP3A4, sequence (P08684 whole entry): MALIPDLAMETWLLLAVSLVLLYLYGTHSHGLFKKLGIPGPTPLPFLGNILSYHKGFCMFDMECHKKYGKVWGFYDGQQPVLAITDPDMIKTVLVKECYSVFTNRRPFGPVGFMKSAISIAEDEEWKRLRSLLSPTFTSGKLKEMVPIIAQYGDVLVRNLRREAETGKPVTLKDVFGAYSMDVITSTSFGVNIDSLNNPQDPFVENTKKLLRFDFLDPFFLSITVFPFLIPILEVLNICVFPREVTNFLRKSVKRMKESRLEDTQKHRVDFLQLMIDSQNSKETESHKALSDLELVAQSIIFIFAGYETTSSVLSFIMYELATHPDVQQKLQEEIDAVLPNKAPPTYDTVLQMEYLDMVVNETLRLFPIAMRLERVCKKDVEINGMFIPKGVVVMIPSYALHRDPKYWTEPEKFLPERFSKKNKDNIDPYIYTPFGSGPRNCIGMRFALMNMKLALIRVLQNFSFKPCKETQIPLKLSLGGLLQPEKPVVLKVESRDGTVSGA
CYP2C9, sequence (P11712 whole entry): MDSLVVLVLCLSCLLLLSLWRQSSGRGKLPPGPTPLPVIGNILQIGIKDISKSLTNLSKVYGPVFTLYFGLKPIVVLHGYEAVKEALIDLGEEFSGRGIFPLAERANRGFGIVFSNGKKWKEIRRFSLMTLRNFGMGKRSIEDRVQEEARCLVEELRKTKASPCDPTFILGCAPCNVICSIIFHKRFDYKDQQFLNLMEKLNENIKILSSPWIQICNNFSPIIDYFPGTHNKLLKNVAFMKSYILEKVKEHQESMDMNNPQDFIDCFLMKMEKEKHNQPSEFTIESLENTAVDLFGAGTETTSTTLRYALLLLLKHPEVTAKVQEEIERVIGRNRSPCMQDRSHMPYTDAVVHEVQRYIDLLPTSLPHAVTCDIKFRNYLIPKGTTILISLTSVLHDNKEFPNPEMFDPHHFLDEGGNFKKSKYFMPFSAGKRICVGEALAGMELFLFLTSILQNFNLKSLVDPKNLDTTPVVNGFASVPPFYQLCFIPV
CYP1A2, sequence (P05177 whole entry): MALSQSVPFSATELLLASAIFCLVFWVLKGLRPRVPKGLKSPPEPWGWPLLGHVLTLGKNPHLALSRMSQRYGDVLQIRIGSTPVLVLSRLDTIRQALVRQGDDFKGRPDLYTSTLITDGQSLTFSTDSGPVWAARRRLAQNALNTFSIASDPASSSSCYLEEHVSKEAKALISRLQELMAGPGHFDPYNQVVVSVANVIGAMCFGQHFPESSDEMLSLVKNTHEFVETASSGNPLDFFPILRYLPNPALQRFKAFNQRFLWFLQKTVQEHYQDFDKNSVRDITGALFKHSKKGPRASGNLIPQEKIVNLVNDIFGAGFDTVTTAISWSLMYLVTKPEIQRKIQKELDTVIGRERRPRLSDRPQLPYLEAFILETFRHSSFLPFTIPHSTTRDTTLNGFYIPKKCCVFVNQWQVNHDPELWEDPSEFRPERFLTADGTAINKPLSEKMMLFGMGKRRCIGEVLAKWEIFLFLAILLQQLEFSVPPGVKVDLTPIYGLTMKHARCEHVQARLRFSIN

Row | AUC(0-t) ([1]; iv, i.v. (2.5 mg/kg)) [ng·h/mL] | clearance ([1]; iv, i.v. (2.5 mg/kg)) [mL/min/kg] | Vd ([1]; iv, i.v. (2.5 mg/kg)) [L/kg] | bioavailability ([1]; po, i.g. (10 mg/kg)) [%] | AUC(0-t) ([1]; po, i.g. (10 mg/kg)) [ng·h/mL] | AUC(0-t) ([3]; iv, i.v. (5 mg/kg)) [ng·h/mL] | clearance ([3]; iv, i.v. (5 mg/kg)) [mL/min/kg] | Vd ([3]; iv, i.v. (5 mg/kg)) [L/kg] | bioavailability ([3]; po, i.g. (10 mg/kg)) [%] | AUC(0-t) ([3]; po, i.g. (10 mg/kg)) [ng·h/mL] | IC50 (CYP2D6) [µM] | IC50 (CYP3A4) [µM] | IC50 (CYP1A2) [µM] | IC50 (CYP2C9) [µM] | Structure (SMILES) | IC50 [2] [µM] | inhibition at 40 µM [2] [%]
1 | 2070 ± 294 | 16.9 ± 4 | 12.2 ± 1.5 | 55 ± 13 | 4560 ± 1040 | 3810 | 15 | 18.2 | 74.3 | 5650 | 34.1 | 15.7 | > 100 | 20 | C[C@@H]1Cc2c([nH]c3ccc(F)cc23)[C@@H](c2c(F)cc(N[C@H]3CCN(CCCF)C3)cc2F)N1CC(F)(F)F [Compound 18, (S)—N-(3,5-difluoro-4-((1R,3R)-6-fluoro-3-methyl-2-(2,2,2-trifluoroethyl)-2,3,4,9-tetrahydro-1H-pyrido[3,4-b]indol-1-yl)phenyl)-1-(3-fluoropropyl)pyrrolidin-3-amine] | 2.82 | 100 ± 1.79
2 | 853 ± 48 | 39.2 ± 2.8 | 31.4 ± 5.9 | 57.6 ± 14 | 1970 ± 469 | 3360 | 16.3 | 21.6 | 65.6 | 4410 | 23.4 | 18.9 | > 100 | 19.5 | C[C@@H]1Cc2c([nH]c3cc(F)ccc23)[C@@H](c2c(F)cc(N[C@H]3CCN(CCCF)C3)cc2F)N1CC(F)(F)F [Compound 32, (S)—N-(3,5-difluoro-4-((1R,3R)-7-fluoro-3-methyl-2-(2,2,2-trifluoroethyl)-2,3,4,9-tetrahydro-1H-pyrido[3,4-b]indol-1-yl)phenyl)-1-(3-fluoropropyl)pyrrolidin-3-amine] | 4.14 | 100.2 ± 0.74
3 | 1570 ± 143 | 20.8 ± 2 | 18.1 ± 2.1 | 51 ± 2.1 | 3200 ± 129 | 10200 | 8.21 | 16.6 | 50.2 | 10200 | 21.5 | > 12.7 | 41.6 | > 42.8 | C#Cc1ccc2c3c([nH]c2c1)[C@@H](c1c(F)cc(N[C@H]2CCN(CCCF)C2)cc1F)N(CC(F)(F)F)[C@H](C)C3 [Compound 43, (S)—N-(4-((1R,3R)-7-ethynyl-3-methyl-2-(2,2,2-trifluoroethyl)-2,3,4,9-tetrahydro-1H-pyrido[3,4-b]indol-1-yl)-3,5-difluorophenyl)-1-(3-fluoropropyl)pyrrolidin-3-amine] | 12.3 | 98.28 ± 0.93
